Test [1] relates to NQO1 activation in BEAS-2B cells. The test can be described thus: BEAS-2B cellular MTT assay of NQO1 activation, 0% HSA. Type of test: cell-based. Particulars: Serum Free W, read-out: BEAS EC50 (nM) Serum Free W. Put shortly: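 BEAS-2B cells grown in BEBM with BEGM SingleQuots (no GA-1000), kept below 70% confluence, seeded on collagen plates at a density giving 95-100% confluence after 48 h. Plates seeded in medium without HSA (0% HSA condition).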
(In general: Formazan colour is commonly taken as a measure of viable cells.)

The test system is the same in test [2]. The test can be described thus: BEAS-2B cellular MTT assay of NQO1 activation, 0.3% HSA. The test is classed as cell-based. The note with it: BEAS+ W, read-out: BEAS+ W EC50. Put shortly: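 BEAS-2B cells (<70% confluent in culture, BEBM/SingleQuots without GA-1000) seeded in collagen plates with 0.3% or 0% HSA, reaching 95-100% confluency after 48 h at 37 °C, 5% CO2; MTT read-out.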

Test [3] concerns the target HIS-Keap1 full length / Biotin-Nrf2 (16-mer) (Homo sapiens, UniProt Q14145). The experiment in a line: biochemical.

“And” between values parts separate entries of the source, which are not always exact repeats. Identical values can stand only once.

Sequence of HIS-Keap1 full length / Biotin-Nrf2 (16-mer) (Q14145 whole entry): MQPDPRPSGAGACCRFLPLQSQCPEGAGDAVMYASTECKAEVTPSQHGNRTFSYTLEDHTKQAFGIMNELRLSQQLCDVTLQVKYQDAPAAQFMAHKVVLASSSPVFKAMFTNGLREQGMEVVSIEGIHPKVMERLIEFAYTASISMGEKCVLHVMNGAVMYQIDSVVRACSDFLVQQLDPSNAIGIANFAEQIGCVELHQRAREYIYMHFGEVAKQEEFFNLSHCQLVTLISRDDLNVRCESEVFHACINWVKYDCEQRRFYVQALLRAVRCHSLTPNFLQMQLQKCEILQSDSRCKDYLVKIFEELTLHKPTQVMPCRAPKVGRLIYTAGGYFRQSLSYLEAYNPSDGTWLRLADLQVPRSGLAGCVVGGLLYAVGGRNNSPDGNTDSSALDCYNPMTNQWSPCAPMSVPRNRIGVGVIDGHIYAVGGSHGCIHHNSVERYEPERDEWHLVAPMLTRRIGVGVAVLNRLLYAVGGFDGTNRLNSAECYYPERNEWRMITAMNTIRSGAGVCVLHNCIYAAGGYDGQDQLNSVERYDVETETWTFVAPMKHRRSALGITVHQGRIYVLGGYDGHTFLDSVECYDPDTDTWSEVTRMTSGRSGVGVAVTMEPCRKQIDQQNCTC

The EC50 is the concentration giving half of the maximal effect. One may read the IC50 as the concentration needed to halve the response being measured. Take `Cc1cc2ncc1[C@H]([C@@H](C)C(=O)O)c1ccc3c(c1)CN(CC3)C(=O)c1ccc(cc1)C/C=C/CCO2` [Compound 59]: the EC50 in test [1] (Homo sapiens) was 1.7 nM; in test [1] it was 1.6 nM; in test [2], 4.4 nM; in test [2] (Homo sapiens), 5 nM. Also, in test [3], the half-inhibitory concentration (IC50) is 8.1 nM and 7.3 nM.
Consider `Cc1cc2ncc1[C@H]([C@H](C)C(=O)O)c1ccc3c(c1)CN(CC3)C(=O)c1ccc(cc1)C/C=C/CCO2` [Compound 62], for which the EC50 in test [1] (Homo sapiens) is 0.2 nM; in test [1], 0.1 nM; in test [2], 0.4 nM and 0.3 nM; in test [2] (Homo sapiens), less than 0.5 nM. Besides, the IC50 in test [3] is 0.4 nM and 0.8 nM.
For `Cc1c2n(C)c3ccc(cc13)CCCCCCn1nnc3c(C)c(cnc31)[C@@H](CC(=O)O)c1ccc3c(c1)CN(CC3)C2=O` [Compound 63], the concentration for a half-maximal effect (EC50) in test [1] (Homo sapiens) was 0.7 nM; in test [1] it was 0.9 nM; in test [2] it was 3.7 nM and 3.5 nM; in test [2] (Homo sapiens), 2.8 nM. Further, the half-inhibitory concentration (IC50) in test [3] was 0.5 nM and 0.4 nM.
For `Cc1c2n(C)c3ccc(cc13)C/C=C\CCCn1nnc3c(C)c(cnc31)[C@@H](CC(=O)O)c1ccc3c(c1)CN(CC3)C2=O` [Compound 65], the EC50 in test [1] (Homo sapiens) was 3.7 nM; in test [1], 2.7 nM; in test [2], 23.9 nM; in test [2] (Homo sapiens), 18.4 nM. For the same compound, in test [3], the half-maximal inhibitory concentration (IC50) was 1.5 nM and 1.6 nM.
Take `C[C@@H](C(=O)O)[C@H]1c2ccc(nc2)OCC/C=C/Cc2ccc(cc2)C(=O)N2CCc3ccc1cc3C2` [Compound 66]: the half-maximal effective concentration (EC50) in test [1] (Homo sapiens) is 20.6 nM; in test [1], 27.6 nM; in test [2], 55.6 nM; in test [2] (Homo sapiens) it was 39.3 nM. Besides, the concentration for half-maximal inhibition (IC50) in test [3] is 31.9 nM and 29.5 nM.
As to `Cc1c2cnc3c1nnn3CCCCCCCc1ccc(cc1)C(=O)N1CCc3ccc(cc3C1)[C@H]2CC(=O)O` [Compound 67], the EC50 is 23 nM in test [1] (Homo sapiens), 23.5 nM in test [1], 166 nM in test [2] and 159 nM in test [2] (Homo sapiens). The IC50 in test [3] was 14 nM and 14.5 nM.
On to `Cc1c2ccc3c1nnn3CCCCCCc1ccc3c(c1)cc(n3CCCF)C(=O)N1CCc3ccc(cc3C1)[C@@H]2CC(=O)O` [Compound 69], for which the 50% effective concentration (EC50) was determined as 7.7 nM in test [1] (Homo sapiens), 9 nM in test [1], 549 nM in test [2] and 494 nM in test [2] (Homo sapiens). The IC50 in test [3] is 0.9 nM and 0.7 nM.
For `Cc1cc2cnc1OCCCCCc1ccc(cc1)C(=O)N1CCc3ccc(cc3C1)[C@H]2[C@H](C)C(=O)O` [Compound 70], the EC50 in test [1] (Homo sapiens) was determined as 32.4 nM; in test [1] it was 29.9 nM; in test [2] it was 221 nM; in test [2] (Homo sapiens), 150 nM. Moreover, the half-inhibitory concentration (IC50) in test [3] is 594 nM and 763 nM.
For the compound `Cc1cc2ncc1[C@H]([C@@H](C)C(=O)O)c1ccc3c(c1)CN(CC3)C(=O)c1ccc(cc1)CCCCCO2` [Compound 75], the EC50 in test [1] (Homo sapiens) was 9.1 nM; in test [1] it was 16 nM; in test [2], 60 nM; in test [2] (Homo sapiens), 45.2 nM. Moreover, the 50% inhibitory concentration (IC50) in test [3] was 21.7 nM and 22.7 nM.
Take `Cc1c2cnc3c1nnn3CCCCCCCc1ccc(cc1)C(=O)N1CCc3ccc(cc3C1)[C@@H]2CC(=O)O` [Compound 77]: the EC50 was determined as 11.7 nM in test [1] (Homo sapiens), 13.7 nM in test [1], 45.3 nM in test [2] and 34.5 nM in test [2] (Homo sapiens). In addition, the IC50 in test [3] is 0.4 nM and 0.8 nM.
For `Cc1cc2ncc1[C@H](CC(=O)O)c1ccc3c(c1)CN(CC3)C(=O)c1ccc(cc1)COCCCO2` [Compound 78], the EC50 stood at 43 nM in test [1] (Homo sapiens), 59.3 nM in test [1], 108 nM in test [2] and 105 nM in test [2] (Homo sapiens). In addition, the IC50 in test [3] was 7.6 nM and 6 nM.
As to `Cc1cc2ncc1[C@@H](CC(=O)O)c1ccc3c(c1)CN(CC3)C(=O)c1ccc(cc1)COCCCO2` [Compound 81], the concentration for a half-maximal effect (EC50) was greater than 1000 nM in test [1] (Homo sapiens), 1840 nM in test [1], 1950 nM in test [2] and 2160 nM in test [2] (Homo sapiens). The IC50 in test [3] is 251 nM and 220 nM.
As for `Cc1cc2cnc1OCC/C=C/Cc1ccc(cc1)C(=O)N1CCc3ccc(cc3C1)[C@@H]2[C@@H](C)C(=O)O` [Compound 83], the EC50 in test [1] (Homo sapiens) is greater than 1000 nM; in test [1], 1780 nM; in test [2] it was 8440 nM; in test [2] (Homo sapiens), greater than 10000 nM. In test [3], the IC50 is 4420 nM and 3910 nM.
Turning to `COCCn1c2cc3cc(ccc31)CCCCCCn1nnc3c(C)c(ccc31)[C@@H](CC(=O)O)c1ccc3c(c1)CN(CC3)C2=O` [Compound 85], the EC50 was 39.4 nM in test [1] (Homo sapiens), 61.3 nM in test [1], 244 nM in test [2] and 249 nM in test [2] (Homo sapiens). The IC50 in test [3] is 1.6 nM and 1.2 nM.
As for `COc1cc2ccc1CCCCCn1nnc3c(C)c(cnc31)[C@@H](CC(=O)O)c1ccc3c(c1)CN(CC3)C2=O` [Compound 86], the concentration giving a half-maximal response (EC50) is 18 nM in test [1] (Homo sapiens), 19.7 nM in test [1], 25.7 nM in test [2] and 20.4 nM in test [2] (Homo sapiens). The IC50 in test [3] was 0.9 nM and 0.8 nM.
For `COc1cc2ccc1CCCCCn1nnc3c(C)c(cnc31)[C@H](CC(=O)O)c1ccc3c(c1)CN(CC3)C2=O` [Compound 87], the concentration giving a half-maximal response (EC50) was found to be 13 nM in test [1] (Homo sapiens), 18.2 nM in test [1], 38.1 nM in test [2] and 40.5 nM in test [2] (Homo sapiens). For the same compound, in test [3], the 50% inhibitory concentration (IC50) is 0.8 nM and 0.9 nM.
Regarding `COc1cc2ccc1C(=O)N1CCc3ccc(cc3C1)[C@@H](CC(=O)O)c1cnc3c(nnn3CCCCC2)c1C` [Compound 88], the half-maximal effective concentration (EC50) in test [1] (Homo sapiens) is 35.3 nM; in test [1], 40.4 nM; in test [2], 101 nM; in test [2] (Homo sapiens), 88.5 nM. The half-maximal inhibitory concentration (IC50) in test [3] was 1 nM and 1.1 nM.
Turning to `COc1cc2ccc1C(=O)N1CCc3ccc(cc3C1)[C@H](CC(=O)O)c1cnc3c(nnn3CCCCC2)c1C` [Compound 89], the half-maximal effective concentration (EC50) was found to be 30.6 nM in test [1] (Homo sapiens), 22.8 nM in test [1], 48.5 nM in test [2] and 38.7 nM in test [2] (Homo sapiens). Besides, the concentration for half-maximal inhibition (IC50) in test [3] was 0.8 nM and 0.9 nM.
Take `Cc1c2ccc3c1nnn3CCCCCCc1c(F)c(F)c(c(F)c1F)C(=O)N1CCc3ccc(cc3C1)[C@@H]2CC(=O)O` [Compound 90]: the EC50 in test [1] (Homo sapiens) was 1.3 nM; in test [1], 1 nM; in test [2], 3.5 nM; in test [2] (Homo sapiens), 3.6 nM. This compound yielded a half-inhibitory concentration (IC50) in test [3] of 1.1 nM.
For the compound `Cc1cc2cc3c1CCN(C3)C(=O)c1ccc(cc1)CCCCCCn1nnc3c(C)c(cnc31)[C@@H]2CC(=O)O` [Compound 92], the concentration for a half-maximal effect (EC50) is 23.6 nM in test [1] (Homo sapiens), 24.8 nM in test [1], 141 nM in test [2] and 115 nM in test [2] (Homo sapiens). Also, in test [3], the IC50 was 4.6 nM and 3.9 nM.
In the case of `Cc1cc2cc3c1CCN(C3)C(=O)c1ccc(cc1)CCCCCCn1nnc3c(C)c(cnc31)[C@H]2CC(=O)O` [Compound 93], the EC50 in test [1] (Homo sapiens) is 3.4 nM; in test [1], 2.7 nM; in test [2] it was 17.1 nM; in test [2] (Homo sapiens), 15.4 nM. The IC50 in test [3] was 1.3 nM and 1.4 nM.
As for `COc1cc2ccc1C(=O)N1CCc3ccc(cc3C1)[C@H](CC(=O)O)c1cnc3c(nnn3CCCCCC2)c1C` [Compound 94], the 50% effective concentration (EC50) in test [1] (Homo sapiens) was found to be 36.8 nM; in test [1] it was 63.2 nM; in test [2], 52.3 nM; in test [2] (Homo sapiens), 51 nM. For the same compound, the concentration for half-maximal inhibition (IC50) in test [3] was 1.1 nM and 1.3 nM.
Take `COc1cc2ccc1CCCCCCn1nnc3c(C)c(cnc31)[C@H](CC(=O)O)c1ccc3c(c1)CN(CC3)C2=O` [Compound 95]: the concentration giving a half-maximal response (EC50) in test [1] (Homo sapiens) amounted to 53.1 nM; in test [1] it was 64.8 nM; in test [2] it was 124 nM; in test [2] (Homo sapiens), 92 nM. In test [3], the IC50 is 1.8 nM and 1.9 nM.

These data come from patent US12692274B2, “Tetrahydroisoquinoline derivatives for the treatment of red blood disorders and inflammatory diseases” (Sanofi, priority 2020, dated 2026).
